System: Arabidopsis thaliana seed germination
Experiment: Arabidopsis seed germination assay (promotion of germination in the presence of (S)-ABA)
Type: in vivo
Parameters: key to Rating: Arabidopsis seed germination promotion activity: −: Seeds germinated at approximately the same time as those treated with 0.3 ppm of (S)-ABA alone (i.e., treatment with the 2′-vinyl-(S)-ABA derivative showed no measurable effect in this assay configuration).; +: Seeds germinated 1 to 4 days earlier than those treated with 0.3 ppm of (S)-ABA alone.; ++: Seeds germinated 5 to 7 days earlier than those treated with 0.3 ppm of (S)-ABA alone.; +++: Seeds germinated 8 to 10 days earlier than those treated with 0.3 ppm of (S)-ABA alone
Settings: for Rating: Arabidopsis seed germination promotion activity: 30 ppm compound in the presence of 0.3 ppm (S)-ABA, scored on day 14; for antagonist nature compared to (S)-ABA: seed germination assay, 30 ppm with 0.3 ppm (S)-ABA
Protocol: To determine whether the (S)-ABA derivatives of the present invention were effective antagonists, germination assays were performed with the model plant Arabidopsis thaliana. If the compounds are found to be antagonists, they may be useful to counter any undesirable side effects of (S)-ABA.
Arabidopsis seed was sterilized by shaking for five minutes in 200 proof ethanol, followed by shaking for five minutes in a 10% bleach solution. The seeds were then washed five times in sterile, distilled, de-ionized water and suspended in 0.1% phytoagar. The tubes containing the seeds were wrapped in aluminum foil and stratified at 4° C. for two days.
All compounds were tested at a concentration of 30 ppm in the presence or absence of 0.3 ppm (S)-ABA, in 24-well plates. For each compound, a 1000 ppm stock solution was prepared in distilled, deionized water containing 5% DMSO. The stock test solution (15 μL) was added to each well, plus or minus 1.5 μL of 100 ppm (S)-ABA in 5% DMSO. Appropriate amounts of distilled, de-ionized water was added to equalize volumes, and 450 μL of ½×Murashige and Skoog media containing 1.2% Bactoagar was then added to each well (final DMSO concentration was 0.5%). When the media solidified, ten to 15 sterile stratified Arabidopsis seeds were distributed into each well using a repeat pipettor. The plates were sealed with surgical tape and placed in a growth chamber running diurnal cycles of 12 hours of light at 24° C. and 12 hours of darkness at 19° C. The plates were scanned on days 3 through 14, and scored on day 14. The (S)-2′-vinyl-substituted ABA derivatives were scored on ability to promote germination in the presence of (S)-ABA. The results are summarized below in “Table 1: Arabidopsis seed germination promotion activity of 2′-vinyl-(S)-ABA derivatives.”

SMILES | Rating: Arabidopsis seed germination promotion activity | antagonist nature compared to (S)-ABA
CC(=C/C(=O)O)/C=C/[C@@]1(O)C(/C=C/c2ccc(C(F)(F)F)cc2F)=CC(=O)CC1(C)C [Compound 30] | ++ (Seeds germinated 5 to 7 days earlier than those treated with 0.3 ppm of (S)-ABA alone.) | 
COC(=O)/C=C(C)\C=C\[C@@]1(O)C(/C=C/c2cccc(C(F)(F)F)c2Cl)=CC(=O)CC1(C)C [Compound 13] | + (Seeds germinated 1 to 4 days earlier than those treated with 0.3 ppm of (S)-ABA alone.) | 
CC(=C/C(=O)O)/C=C/[C@@]1(O)C(/C=C/c2ccc(Cl)c(Cl)c2)=CC(=O)CC1(C)C [Compound 19] | ++ (Seeds germinated 5 to 7 days earlier than those treated with 0.3 ppm of (S)-ABA alone.) | 
COC(=O)/C=C(C)\C=C\[C@@]1(O)C(/C=C/c2ccc(Cl)c(F)c2)CC(=O)CC1(C)C (stereo partly shown) [Compound 9] | ++ (Seeds germinated 5 to 7 days earlier than those treated with 0.3 ppm of (S)-ABA alone.) | 
CC(=C/C(=O)O)/C=C/[C@@]1(O)C(/C=C/c2ccccc2C(F)(F)F)=CC(=O)CC1(C)C [Compound 25] | ++ (Seeds germinated 5 to 7 days earlier than those treated with 0.3 ppm of (S)-ABA alone.) | 
CC(=C/C(=O)O)/C=C/[C@@]1(O)C(/C=C/c2c(F)cccc2F)=CC(=O)CC1(C)C [Compound 6] | − | 
CC(=C/C(=O)O)/C=C/[C@@]1(O)C(/C=C/c2cc(Cl)cc(Cl)c2)=CC(=O)CC1(C)C [Compound 16] | ++ (Seeds germinated 5 to 7 days earlier than those treated with 0.3 ppm of (S)-ABA alone.) | 
CC(=C/C(=O)O)/C=C/[C@@]1(O)C(/C=C/c2ccc(F)cc2)=CC(=O)CC1(C)C [Compound 2] | + (Seeds germinated 1 to 4 days earlier than those treated with 0.3 ppm of (S)-ABA alone.) | 
CC(=C/C(=O)O)/C=C/[C@@]1(O)C(/C=C/c2cccc(Cl)c2)=CC(=O)CC1(C)C [Compound 17] | − | 
CC(=C/C(=O)O)/C=C/[C@@]1(O)C(/C=C/c2cccc(C(F)(F)F)c2F)=CC(=O)CC1(C)C [Compound 31] | +++ (Seeds germinated 8 to 10 days earlier than those treated with 0.3 ppm of (S)-ABA alone.) | antagonists of (S)-ABA
CC(=C/C(=O)O)/C=C/[C@@]1(O)C(/C=C/c2ccc(F)c(Cl)c2)=CC(=O)CC1(C)C [Compound 8] | +++ (Seeds germinated 8 to 10 days earlier than those treated with 0.3 ppm of (S)-ABA alone.) | antagonists of (S)-ABA
CC(=C/C(=O)O)/C=C/[C@@]1(O)C(/C=C/c2nccs2)=CC(=O)CC1(C)C [Compound 34] | − | 
COc1ccc(C(F)(F)F)cc1/C=C/C1=CC(=O)CC(C)(C)[C@@]1(O)/C=C/C(C)=C\C(=O)O [Compound 28] | ++ (Seeds germinated 5 to 7 days earlier than those treated with 0.3 ppm of (S)-ABA alone.) | 
CC(=C/C(=O)O)/C=C/[C@@]1(O)C(/C=C/c2cccc(C#N)c2)=CC(=O)CC1(C)C [Compound 32] | − | 
CC(=C/C(=O)O)/C=C/[C@@]1(O)C(/C=C/c2cccc(C(F)(F)F)c2)=CC(=O)CC1(C)C [Compound 21] | + (Seeds germinated 1 to 4 days earlier than those treated with 0.3 ppm of (S)-ABA alone.) | 
CC(=C/C(=O)O)/C=C/[C@@]1(O)C(/C=C/c2cc(C(F)(F)F)ccc2F)=CC(=O)CC1(C)C [Compound 27] | ++ (Seeds germinated 5 to 7 days earlier than those treated with 0.3 ppm of (S)-ABA alone.) | 
CC(=C/C(=O)O)/C=C/[C@@]1(O)C(/C=C/c2ccc(Cl)cc2)=CC(=O)CC1(C)C [Compound 18] | +++ (Seeds germinated 8 to 10 days earlier than those treated with 0.3 ppm of (S)-ABA alone.) | antagonists of (S)-ABA
COC(=O)/C=C(C)\C=C\[C@@]1(O)C(/C=C/c2ccc(Cl)cc2Cl)=CC(=O)CC1(C)C [Compound 15] | ++ (Seeds germinated 5 to 7 days earlier than those treated with 0.3 ppm of (S)-ABA alone.) | 
CC(=C/C(=O)O)/C=C/[C@@]1(O)C(/C=C/c2c(F)cccc2Cl)=CC(=O)CC1(C)C [Compound 7] | ++ (Seeds germinated 5 to 7 days earlier than those treated with 0.3 ppm of (S)-ABA alone.) | 

SMILES | Rating: Arabidopsis seed germination promotion activity | antagonist nature compared to (S)-ABA
COC(=O)/C=C(C)\C=C\[C@@]1(O)C(/C=C/c2ccc(Cl)c(C(F)(F)F)c2)=CC(=O)CC1(C)C [Compound 14] | ++ (Seeds germinated 5 to 7 days earlier than those treated with 0.3 ppm of (S)-ABA alone.) | 
CC(=C/C(=O)O)/C=C/[C@@]1(O)C(/C=C/c2cc(F)cc(C(F)(F)F)c2)=CC(=O)CC1(C)C [Compound 29] | ++ (Seeds germinated 5 to 7 days earlier than those treated with 0.3 ppm of (S)-ABA alone.) | 
CC(=C/C(=O)O)/C=C/[C@@]1(O)C(/C=C/c2cc(C(F)(F)F)ccc2Cl)=CC(=O)CC1(C)C [Compound 1] | ++ (Seeds germinated 5 to 7 days earlier than those treated with 0.3 ppm of (S)-ABA alone.) | 
CC(=C/C(=O)O)/C=C/[C@@]1(O)C(/C=C/c2cccnc2)=CC(=O)CC1(C)C [Compound 37] | − | 
CC(=C/C(=O)O)/C=C/[C@@]1(O)C(/C=C/c2cccc(F)c2)=CC(=O)CC1(C)C [Compound 20] | ++ (Seeds germinated 5 to 7 days earlier than those treated with 0.3 ppm of (S)-ABA alone.) | 
CC(=C/C(=O)O)/C=C/[C@@]1(O)C(/C=C/c2ccccn2)=CC(=O)CC1(C)C [Compound 36] | − | 
COC(=O)/C=C(C)\C=C\[C@@]1(O)C(/C=C/c2ccccc2Cl)=CC(=O)CC1(C)C [Compound 12] | + (Seeds germinated 1 to 4 days earlier than those treated with 0.3 ppm of (S)-ABA alone.) | 
CC(=C/C(=O)O)/C=C/[C@@]1(O)C(/C=C/c2ccc(C#N)cc2)=CC(=O)CC1(C)C [Compound 3] | ++ (Seeds germinated 5 to 7 days earlier than those treated with 0.3 ppm of (S)-ABA alone.) | 
CC(=C/C(=O)O)/C=C/[C@@]1(O)C(/C=C/c2ccc(C)cc2)=CC(=O)CC1(C)C [Compound 4] | +++ (Seeds germinated 8 to 10 days earlier than those treated with 0.3 ppm of (S)-ABA alone.) | antagonists of (S)-ABA
CC(=C/C(=O)O)/C=C/[C@@]1(O)C(/C=C/c2ccncc2)=CC(=O)CC1(C)C [Compound 38] | − | 
CC(=C/C(=O)O)/C=C/[C@@]1(O)C(/C=C/c2ccco2)=CC(=O)CC1(C)C [Compound 33] | − | 
CC1=CC(=O)CC(C)(C)[C@@]1(O)/C=C/C(C)=C/C(=O)O [(S)-ABA, (S)-abscisic acid, reference compound] | − | 
CC(=C/C(=O)O)/C=C/[C@@]1(O)C(/C=C/c2cncs2)=CC(=O)CC1(C)C [Compound 35] | − | 
CC(=C/C(=O)O)/C=C/[C@@]1(O)C(/C=C/c2c(Cl)cccc2Cl)=CC(=O)CC1(C)C [Compound 5] | − | 
CC(=C/C(=O)O)/C=C/[C@@]1(O)C(/C=C/c2cc(F)cc(F)c2)=CC(=O)CC1(C)C [Compound 24] | ++ (Seeds germinated 5 to 7 days earlier than those treated with 0.3 ppm of (S)-ABA alone.) | 
CC(=C/C(=O)O)/C=C/[C@@]1(O)C(/C=C/c2ccc(C(F)(F)F)cc2)=CC(=O)CC1(C)C [Compound 26] | +++ (Seeds germinated 8 to 10 days earlier than those treated with 0.3 ppm of (S)-ABA alone.) | antagonists of (S)-ABA
COC(=O)/C=C(C)\C=C\[C@@]1(O)C(/C=C/c2ccc(OC)c(C#N)c2)=CC(=O)CC1(C)C [Compound 11] | − | 
COC(=O)/C=C(C)\C=C\[C@@]1(O)C(/C=C/c2ccccc2F)=CC(=O)CC1(C)C [Compound 10] | − | 
CC(=C/C(=O)O)/C=C/[C@@]1(O)C(/C=C/c2ccc(F)cc2F)=CC(=O)CC1(C)C [Compound 22] | ++ (Seeds germinated 5 to 7 days earlier than those treated with 0.3 ppm of (S)-ABA alone.) | 

— US9447015B1, “(S)-2′-vinyl-abscisic acid derivatives” (Valent BioSciences Corporation, priority 2015, dated 2016)
